≈ marks a conversion by molar mass, not a printed value.
Tests used:
[1] = system: colorectal carcinoma (HCT116); assay: Cytotoxic MTT assay, HCT116; type: cell-based, human; details: Homo sapiens, HCT-116; MTT, 48 h treatment
Description: (§1) MTT protocol was performed to study the viability of cells after treatment with the tested compounds. The studied cell lines (A549 and HCT116) were cultured and grown in RPMI‐1640 media, while HFB4 cells were reserved in DMEM‐F12 media. Both media were supplemented with 10% FBS, 1% L‐glutamine, and 1% antibiotic–antimycotic mixture. The cell lines were grown at conditions of 37 °C and 5% CO2. 10 × 10^3 of A549, and HCT116 cells and the same count of normal melanocytes (HFB4) were cultured in a 96‐well plate. The selected cultured cells were kept at 37°C and 5% CO2 overnight. Then, the medium was discarded after 24 h of incubation, and 100 µL from different concentrations of the studied compounds dissolved in fresh medium without serum, with final concentrations of 100, 50, 25, 12.5, 6.25, 3.125, 1.56, and 0.78 µg/mL was added. The treated cells were then incubated for 48 h. After that, 50 µL of MTT was added into each well for 4 h for the formazan crystals to be formed. Finally, 200 µl of 10% sodium dodecyl sulphate (SDS) was added to each well, and plates were kept at room temperature overnight to allow the reaction to be stopped. The optical density at 575 nm was read using a microplate multi-well reader, and the percentage of cell viability was calculated. The dose–response curve was drawn to calculate the IC50 values for each compound using the prism GraphPad 5 program, [84]. 5 Fluorouracil, a commercial anticancer drug was used as a reference drug (positive control). Negative untreated cell control was used in this assay.

lung carcinoma (A549) = assay: Cytotoxic MTT assay, A549; type: cell-based; details: Homo sapiens, 48 h treatment
Description: as §1

[2] = system: normal human skin melanocyte cell line (HFB4); assay: Cytotoxic MTT assay, normal HFB4 cells; type: cell-based; details: 48 h treatment
Description: as §1

A549 [3] = system: A549; parameters: method as in PMID 34939695; details: previous study of the authors; cited from earlier work
HepG2 [4] = system: HepG2; parameters: method as in PMID 34939695; details: previous study of the authors; cited from earlier work
MCF-7 = system: MCF-7; parameters: method as in Jumaah et al., 65; details: ref Jumaah et al., 65; cited from earlier work
A549 [5] = system: A549; parameters: method as in doi:10.1007/s00706-021-02886-5; details: cited from earlier work
HepG2 [6] = system: HepG2; parameters: method as in doi:10.1007/s00706-021-02886-5; details: cited from earlier work

Molecule: N#C/C(=C\c1cn(-c2ccccc2)nc1-c1ccc(Cl)cc1)C(=O)c1c[nH]c2ccccc12 [Compound 7e, (E)-3-(3-(4-Chlorophenyl)-1-phenyl-1H-pyrazol-4-yl)-2-(1H-indole-3-carbonyl)acrylonitrile]
- IC50 [1]: > 100 µg/mL
- melting point: 296 to 298 °C
- IC50 (lung carcinoma (A549)): > 100 µg/mL
- IC50 [2]: > 100 µg/mL

Molecule: Cc1ccc(-c2nn(-c3ccccc3)cc2/C=C(\C#N)C(=O)c2c[nH]c3ccccc23)cc1 [Compound 7b, (E)-2-(1H-Indole-3-carbonyl)-3-(1-phenyl-3-(p-tolyl)-1H-pyrazol-4-yl)acrylonitrile]
- IC50 [1]: > 100 µg/mL
- melting point: 288 to 290 °C
- IC50 (lung carcinoma (A549)): > 100 µg/mL
- IC50 [2]: > 100 µg/mL

Molecule: 3-(thiophen-2-yl)pyrazol-4-yl)chalcone
- IC50 (A549 [3]): 66.6 µM
- IC50 (HepG2 [4]): 64 µM

Molecule: COc1ccc2c(/C=C/C(=O)c3cc(OC)c(OC)c(OC)c3)cn(C)c2c1 [(E)-3-(6-methoxy-1-methyl-1H-indol-3-yl)-1-(3,4,5-tri-methoxyphenyl)-prop-2-en-1-one]
- IC50 (MCF-7): 19.2 µM

Molecule: COc1ccc(-c2nn(-c3ccccc3)cc2/C=C(\C#N)C(=O)c2c[nH]c3ccccc23)cc1 [Compound 7c, (E)-2-(1H-Indole-3-carbonyl)-3-(3-(4-methoxyphenyl)-1-phenyl-1H-pyrazol-4-yl)acrylonitrile]
- IC50 [1]: > 100 µg/mL
- melting point: 252 to 254 °C
- IC50 (lung carcinoma (A549)): > 100 µg/mL
- IC50 [2]: > 100 µg/mL

Molecule: O=c1[nH]cc(F)c(=O)[nH]1 [5 FU, 5-Fluorouracil, reference compound]
- IC50 [1]: 77.2 µg/mL (≈ 593 µM)
- IC50 (lung carcinoma (A549)): 371 µg/mL (≈ 2850 µM)
- IC50 [2]: 223 µg/mL (≈ 1710 µM)

Molecule: N#C/C(=C\c1cn(-c2ccccc2)nc1-c1ccccc1)C(=O)c1c[nH]c2ccccc12 [Compound 7a, (E)-3-(1,3-Diphenyl-1H-pyrazol-4-yl)-2-(1H-indole-3-carbonyl)acrylonitrile]
- IC50 [1]: 93.1 µg/mL (≈ 225 µM)
- melting point: 250 to 252 °C
- IC50 (lung carcinoma (A549)): > 100 µg/mL
- IC50 [2]: > 100 µg/mL

Molecule: N#C/C(=C\c1cn(-c2ccccc2)nc1-c1ccc(O)cc1)C(=O)c1c[nH]c2ccccc12 [Compound 7d, (E)-3-(3-(4-Hydroxyphenyl)-1-phenyl-1H-pyrazol-4-yl)-2-(1H-indole-3-carbonyl)acrylonitrile]
- IC50 [1]: 43 µg/mL (≈ 99.9 µM)
- melting point: 288 to 290 °C
- IC50 (lung carcinoma (A549)): > 100 µg/mL
- IC50 [2]: > 100 µg/mL

Molecule: Cc1ccc(C=CC(=O)c2c(C)nn(-c3ccc([N+](=O)[O-])cc3)c2C)cc1 [1-[3,5-dimethyl-1-(4-nitrophenyl)-1H-pyrazol-4-yl]-3-(p-tolyl) prop-2-en-1-one]
- IC50 A549 (A549 [5]): 44.3 µg/mL (≈ 123 µM)
- IC50 HepG2 (HepG2 [6]): 57.9 µg/mL (≈ 160 µM)
